Test results as given in patent publication US20240391958A1, “KEANUMYCINS AND USES THEREOF IN MEDICINE AND PLANT PROTECTION” (Leibniz-Institut für Naturstoff-Forschung und …, priority 2023, published 2024).
In brackets after ≈: the same amount, converted by molar mass. Several values for one entry are separate records, joined by “and”; a condition that tells them apart may be missing. Equal values may be shown once. Read-outs that look alike come from different tables or passages of the source. Where a SMILES comes first, the peptide text is derived from it. Bridges are numbered along the chain shown (N, C = ends). [ ]: non-standard residue; d: D form. The star is where a group is joined. X1 = CCCCCCCCCCCC[C@@H](O)[C@@H](O)CC(=O)*; Asp(3S-OH) = N[C@H](C(=O)O)[C@H](O)C(=O)O; Thr(4-Cl) = N[C@H](C(=O)O)[C@H](O)CCl; aThr = C[C@H](O)[C@H](N)C(=O)O; d(hSer) = N[C@H](CCO)C(=O)O; dDab = NCC[C@@H](N)C(=O)O; Dab = NCC[C@H](N)C(=O)O; Dhb = C/C=C(\N)C(=O)O

Key:
[1] = system: HAC1 mRNA; test: Splicing of HAC1 mRNA (Ire1-Hac1 UPR pathway); type: cell-based, Candida albicans; conditions: compared to positive tunicamycin control
Source text: To see if keanumycin A triggers the same canonical Ire1-Hac1 UPR pathway, the inventors looked at the splicing of HAC1 mRNA, which is regulated by Ire1. […] Since no other specific signaling pathway stood out, the inventors screened homozygous knockout mutants for significant growth differences in the absence and presence of a sublethal concentration of the NRLP. […] PLB5 is an important gene for phospholipid homeostasis and PMT6 codes for a transmembrane protein mannosyltransferase, which is involved in the construction of the outmost mannan cell wall layer in C. albicans.

[2] = Cytotoxicity; type: cell-based; conditions: human, HeLa cervix carcinoma cells (DSM ACC 57)
Method: Keanumycin A was assayed for antiproliferative effects (GI50) using human umbilical vein endothelial cells HUVEC (ATCC CRL-1730) and human chronic myeloid leukemia cells K-562 (DSM ACC 10) and for their cytotoxic effects (CC50) using human cervix carcinoma cells HeLa (DSM ACC 57) as previously described). The test compounds were dissolved in DMSO (10 mg mL-1).

[3] = system: human vaginal epithelial cells A431; test: Toxicity to uninfected vaginal epithelial cells (LDH); type: cell-based; conditions: A431 cells without infection, 24 hours
Method: (§1) FIGS. 7A-7B show in 7A) Keanumycin A protected human vaginal epithelial cells in C. albicans infection model. Micrograph depicts % damage to human vaginal epithelial cells A431 (y-axis) in the presence of keanumycin A at varied concentrations (x-axis) as estimated by LDH cytotoxicity assay after 24 hours of infection or treatment. LDH absorbance was normalized to C. albicans infected and uninfected controls. Keanumycin A protected vaginal cells from damage by C. albicans at a narrow concentration range from 4-8 μg/ml (black line). Keanumycin A was toxic to vaginal cells at concentrations above 8 μg/ml (grey line) (N=3). […] Vaginal epithelial cells were lysed after 24-hour infection, and fungal viability was measured by XTT absorbance, normalized to C. albicans infected and uninfected controls (N=2) […]
(§2) Overnight culture of C. albicans strain SC5314 grown in YPD at 30° C., shaking at 180 RPM was harvested, washed twice with PBS. […] Epithelial damage was measured 24 hours after infection by collecting and diluting the supernatant 1:10 in PBS and measuring the lactate dehydrogenase (LDH) activity with the Roche Cytotoxicity Detection Kit (LDH) as per manufacturer's instructions. The absorbance (490 nm) values are represented as percentage damage, which is normalized to the low control, where medium only is 0% damage, and high control, where C. albicans infection is 100% damage. […]

[4] = system: C. albicans; test: Membrane permeabilization assay using SYTOX Green; type: cell-based, Candida albicans; conditions: 4 μg mL-1 in 1% DMSO
Source text: Only isolated cells are stained, which can be explained by the fact that the dye can also be used to distinguish dead from live cells. Scale bar=100 μm.
To finally examine if keanumycin A is a membrane-active compound, the inventors performed a membrane permeabilization assay using SYTOX Green (FIG. 6). As a cell-impermeant dye, SYTOX Green enters the cell upon loss of membrane integrity and binds to DNA, which results in fluorescently stained cells. […] Thus, the keanumycins are membrane-active compounds that disturb the structure of the fungal […].

[5] = system: D. discoideum cells (AX2); test: Amoebicidal activity against D. discoideum (cell count, CASY); type: cell-based; conditions: Dictyostelium discoideum; 72 h, 22 °C, average of two experiments
Method: Amoebicidal activity of keanumycin A against D. discoideum was determined using a previously published method. In brief, 3000 D. discoideum cells (AX2) were cultured in 96-well plates (Sarstedt) in 200 μL HL5 medium containing 1% DMSO (Carl Roth) and a specified amount of compound (starting from 0.5 μM; 2-fold serial dilution) in triplicates at 22° C. After 72 h the cell concentration was determined according to the manufacturers instruction using a CASY® Cell Counter+Analyser System (Model TT, Roche Innovatis AG) equipped with a 60 μm capillary and the evaluation cursor set to 7.5-17.5 μm. The viable cell concentration (including standard deviation) was plotted against the logarithmic concentration of the compound and the IC50 value was determined using PRISM (GraphPad, Version 5.03).

[6] = system: Botrytis cinerea SF011406; test: Broth dilution method (NCCLS); type: cell-based
Method: (§3) The activity assay was performed using the broth dilution method according to the EUCAST DEFINITIVE DOCUMENT E.DEF 9.3.2. B. cinerea and A. solani were incubated according to the Methods for dilution antimicrobial susceptibility tests for bacteria that grow aerobically by the NCCLS. Keanumycin A was dissolved in DMSO.

[7] = system: Alternaria solani SF003858; test: Broth dilution method (NCCLS); type: cell-based; conditions: 22 °C
Method: as §3

[8] = system: A. comandoni; test: Amoebicidal activity against Acanthamoeba (resazurin assay); type: cell-based; conditions: 96 h, 28 °C, average of two experiments
Method: (§4) Amoebicidal activity of keanumycin A against Acanthamoeba was determined by culturing A. castellanii or A. comandoni in 96-well plates (Sarstedt) in 100 μL PYG medium (ATCC Medium 712; https://www.atcc.org) containing 1% DMSO (Carl Roth) and a specified amount of compound (starting from 50 μM; 2-fold serial dilution) in triplicates at 28° C. After 96 h the cell viability was determined using a resazurin assay. Therefore, 20 μL of a 1 mM resazurin sodium (Sigma) solution in water was added per single well before it was allowed to incubate for another 3 h at 28° C. Using a plate reader (Tecan Life Sciences, excitation 560 nm and emission 590 nm) the fluorescence emission was determined. The fluorescence (including standard deviation) was plotted against the logarithmic concentration of the compound and the IC50 value was determined using PRISM (GraphPad, Version 5.03).

[9] = system: A. castellanii; test: as above; type: cell-based; conditions: 96 h, 28 °C, average of two experiments
Method: as §4

[10] = system: human vaginal epithelial cells A431 infected with C. albicans; test: C. albicans vaginal epithelial infection model, epithelial damage (LDH); type: cell-based; conditions: 24 hours of infection, tested 1-16 μg/ml
Method: as §1, §2

[11] = system: C. albicans strain SC5314; test: MIC against C. albicans SC5314; type: cell-based; conditions: Candida albicans

With `C/C=C1\NC(=O)[C@H]([C@H](C)O)NC(=O)[C@H](CCN)NC(=O)[C@@H](CCO)NC(=O)CNC(=O)[C@@H](CCN)NC(=O)[C@@H](NC(=O)C[C@H](O)[C@H](O)CCCCCCCCCCCC)COC(=O)[C@H]([C@H](O)CCl)NC(=O)[C@H]([C@H](O)C(=O)O)NC1=O` [Keanumycin A, keanumycin A] (X1-S[dDab]G[d(hSer)][Dab][aThr][Dhb][Asp(3S-OH)][Thr(4-Cl)]; ester 1-C) as the molecule, how does the “splicing of HAC1 mRNA” value [1] read?
Its value is “could not observe splicing in HAC1 mRNA”.

And the CC50 [2]?
Its CC50 is 34.9 µg/mL.

And the CC50 ([2]; HeLa, converted value)?
Its CC50 is 30000 nM.

What about the “concentrations toxic to vaginal cells” value [3] of the same molecule?
Its value is “above 8 μg/ml”.

What about the “membrane permeabilization (SYTOX Green staining)” value [4] of the same molecule?
Its value is “permeabilizes the cell wall of the fungi”.

What about the “membrane permeabilization (SYTOX Green staining)” value ([4]; listed as keanumycin A) of the same molecule?
Its value is “staining of all cells”.

What about the IC50 [5] of the same molecule?
The IC50 was 4.4 nM.

What about the MIC ([6]; Botrytis cinerea SF011406, NCCLS, 22 °C) of the same molecule?
The MIC was 0.08 µg/mL.

And the MIC ([6]; Botrytis cinerea, SF011406, Botrytis cinerea, NCCLS, 22 °C, read-out: MIC)?
Its MIC is 0.07 µM.

What about the MIC ([6]; Botrytis cinerea, SF011406, Botrytis cinerea, read-out: MIC) of the same molecule?
The MIC was 0.069 µM.

And the MIC [7]?
Its MIC is 1.07 µM and 1.25 µg/mL.

What about the IC50 [8] of the same molecule?
The IC50 was 3100 nM.

What about the IC50 [9] of the same molecule?
The IC50 was 2000 nM.

What about the “concentration range protecting vaginal cells from damage by C. albicans” value [10] of the same molecule?
The value was 4 to 8 µg/mL.

What about the MIC [11] of the same molecule?
Its MIC is 1.72 µM (≈ 2.01 µg/mL).
